According to PubChem BioAssay (NCI):
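How tested: cells in 96-well plates exposed to compound for 48 hours at five concentrations. Here, GI50 denotes the concentration required for 50% inhibition of growth. TGI marks complete inhibition of growth.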

Experiments:
Test in all cases: NCI anticancer screen, dose series, 48 h
[1] = system: SF-295 CNS
[2] = system: RPMI-8226 leukemia
[3] = system: HCT-116 colon
[4] = system: OVCAR-5 ovarian
[5] = system: A498 renal
[6] = system: 786-0 renal
[7] = system: K-562 leukemia
[8] = system: SK-OV-3 ovarian
[9] = system: OVCAR-8 ovarian
[10] = system: A549 NSCLC
[11] = system: EKVX NSCLC
[12] = system: NCI-H460 lung
[13] = system: NCI-H226 lung
[14] = system: M14 melanoma
[15] = system: OVCAR-4 ovarian
[16] = system: NCI-H522 lung
[17] = system: SN12C renal
[18] = system: HOP-62 NSCLC
[19] = system: HL-60(TB) leukemia
[20] = system: MCF7 breast
[21] = system: MOLT-4 leukemia
[22] = system: UO-31 renal
[23] = system: UACC-62 melanoma
[24] = system: U251 CNS
[25] = system: BT-549 breast
[26] = system: HT29 colon
[27] = system: CCRF-CEM leukemia
[28] = system: MDA-MB-435
[29] = system: ACHN renal
[30] = system: SF-539 CNS
[31] = system: PC-3 prostate
[32] = system: SR leukemia
[33] = system: NCI/ADR-RES ovarian
[34] = system: IGROV1 ovarian
[35] = system: TK-10 renal
[36] = system: UACC-257 melanoma
[37] = system: DU-145 prostate
[38] = system: OVCAR-3 ovarian
[39] = system: HCC-2998 colon
[40] = system: KM12 colon
[41] = system: SF-268 CNS
[42] = system: RXF 393 renal
[43] = system: COLO 205 colon
[44] = system: SK-MEL-5 melanoma
[45] = system: HOP-92 NSCLC
[46] = system: MDA-MB-231 breast
[47] = system: SW-620 colon
[48] = system: NCI-H23 lung
[49] = system: HCT-15 colon
[50] = system: SNB-75 CNS
[51] = system: MDA-MB-468 breast
[52] = system: SNB-19 CNS
[53] = system: SK-MEL-28 melanoma
[54] = system: SK-MEL-2 melanoma
[55] = system: CAKI-1 renal
[56] = system: T-47D breast
[57] = system: LOX IMVI melanoma
[58] = system: MALME-3M melanoma
[59] = system: HS 578T breast

CC(C)(C)OC(=O)N1C/C(=C\c2ccc(F)cc2)C(=O)/C(=C/c2ccc(F)cc2)C1
GI50 [1]: 1.97 µM
TGI [1]: 3.98 µM
GI50 [2]: 0.379 µM
TGI [2]: 2.64 µM
GI50 [3]: 0.355 µM
TGI [3]: 1.28 µM
GI50 [4]: 2.18 µM
TGI [4]: 5.59 µM
GI50 [5]: 17.1 µM
TGI [5]: 34.6 µM
GI50 [6]: 1.94 µM
TGI [6]: 3.98 µM
GI50 [7]: 0.643 µM
TGI [7]: > 100 µM
GI50 [8]: 8.24 µM
TGI [8]: 21.9 µM
GI50 [9]: 1.83 µM
TGI [9]: 3.78 µM
GI50 [10]: 6.72 µM
TGI [10]: 29 µM
GI50 [11]: 2.56 µM
TGI [11]: 6.61 µM
GI50 [12]: 3.22 µM
TGI [12]: 10.7 µM
GI50 [13]: 3.64 µM
TGI [13]: 14.8 µM
GI50 [14]: 2.02 µM
TGI [14]: 4.5 µM
GI50 [15]: 3.22 µM
TGI [15]: 19.5 µM
GI50 [16]: 1.63 µM
TGI [16]: 3.17 µM
GI50 [17]: 1.82 µM
TGI [17]: 4.12 µM
GI50 [18]: 13.1 µM
TGI [18]: 26.9 µM
GI50 [19]: 2.88 µM
TGI [19]: > 100 µM
GI50 [20]: 0.991 µM
TGI [20]: 2.46 µM
GI50 [21]: 3.5 µM
TGI [21]: > 100 µM
GI50 [22]: 1.77 µM
TGI [22]: 3.94 µM
GI50 [23]: 1.78 µM
TGI [23]: 4.17 µM
GI50 [24]: 1.44 µM
TGI [24]: 2.96 µM
GI50 [25]: 1.82 µM
TGI [25]: 3.73 µM
GI50 [26]: 1.91 µM
TGI [26]: 3.72 µM
GI50 [27]: 1.81 µM
TGI [27]: > 100 µM
GI50 [28]: 1.73 µM
TGI [28]: 3.32 µM
GI50 [29]: 1.87 µM
TGI [29]: 3.68 µM
GI50 [30]: 1.94 µM
TGI [30]: 3.81 µM
GI50 [31]: 1.9 µM
TGI [31]: 6.41 µM
GI50 [32]: 0.335 µM
TGI [32]: > 100 µM
GI50 [33]: 1.89 µM
TGI [33]: 4.39 µM
GI50 [34]: 2.14 µM
TGI [34]: 4.82 µM
GI50 [35]: 4.01 µM
TGI [35]: 16.4 µM
GI50 [36]: 2.06 µM
TGI [36]: 5.19 µM
GI50 [37]: 3.5 µM
TGI [37]: 13.7 µM
GI50 [38]: 1.99 µM
TGI [38]: 4.46 µM
GI50 [39]: 1.84 µM
TGI [39]: 3.26 µM
GI50 [40]: 1.89 µM
TGI [40]: 4.23 µM
GI50 [41]: 3.02 µM
TGI [41]: 11.7 µM
GI50 [42]: 2.92 µM
TGI [42]: 8.29 µM
GI50 [43]: 3.49 µM
TGI [43]: 12.1 µM
GI50 [44]: 1.71 µM
TGI [44]: 3.51 µM
GI50 [45]: 2.51 µM
TGI [45]: 9.66 µM
GI50 [46]: 2.16 µM
TGI [46]: 5.27 µM
GI50 [47]: 0.455 µM
TGI [47]: 1.7 µM
GI50 [48]: 2.17 µM
TGI [48]: 5.3 µM
GI50 [49]: 1.5 µM
TGI [49]: 3.22 µM
GI50 [50]: 2.53 µM
TGI [50]: 19.9 µM
GI50 [51]: 1.85 µM
TGI [51]: 3.75 µM
GI50 [52]: 2.65 µM
TGI [52]: 8.72 µM
GI50 [53]: 2.17 µM
TGI [53]: 5.51 µM
GI50 [54]: 2.65 µM
TGI [54]: 9.67 µM
GI50 [55]: 2.07 µM
TGI [55]: 5.5 µM
GI50 [56]: 3.18 µM
TGI [56]: 15.9 µM
GI50 [57]: 1.28 µM
TGI [57]: 2.55 µM
GI50 [58]: 2.24 µM
TGI [58]: 5.15 µM
GI50 [59]: 2.26 µM
TGI [59]: 7.68 µM
